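48-hour exposure; five concentrations; linearly interpolated endpoints. The concentration for full growth arrest is given as TGI.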
What was measured:
Experiment in all cases: NCI-60 cell line screen, 48 h
ACHN renal = tested on: ACHN renal
CAKI-1 renal = tested on: CAKI-1 renal
CCRF-CEM leukemia = tested on: CCRF-CEM leukemia
COLO 205 colon = tested on: COLO 205 colon
HOP-92 NSCLC = tested on: HOP-92 NSCLC
K-562 leukemia = tested on: K-562 leukemia
MALME-3M melanoma = tested on: MALME-3M melanoma
OVCAR-4 ovarian = tested on: OVCAR-4 ovarian
OVCAR-5 ovarian = tested on: OVCAR-5 ovarian
SF-295 CNS = tested on: SF-295 CNS
SK-MEL-2 melanoma = tested on: SK-MEL-2 melanoma
SK-MEL-5 melanoma = tested on: SK-MEL-5 melanoma
SNB-19 CNS = tested on: SNB-19 CNS
UACC-257 melanoma = tested on: UACC-257 melanoma
UO-31 renal = tested on: UO-31 renal
HS 578T breast = tested on: HS 578T breast
MCF7 breast = tested on: MCF7 breast
PC-3 prostate = tested on: PC-3 prostate

Compound | TGI (ACHN renal) [µM] | TGI (CAKI-1 renal) [µM] | TGI (CCRF-CEM leukemia) [µM] | TGI (COLO 205 colon) [µM] | TGI (HOP-92 NSCLC) [µM] | TGI (K-562 leukemia) [µM] | TGI (MALME-3M melanoma) [µM] | TGI (OVCAR-4 ovarian) [µM] | TGI (OVCAR-5 ovarian) [µM] | TGI (SF-295 CNS) [µM] | TGI (SK-MEL-2 melanoma) [µM] | TGI (SK-MEL-5 melanoma) [µM] | TGI (SNB-19 CNS) [µM] | TGI (UACC-257 melanoma) [µM] | TGI (UO-31 renal) [µM] | TGI (HS 578T breast) [µM] | TGI (MCF7 breast) [µM] | TGI (PC-3 prostate) [µM]
C=C1C(=O)OC2C[C@H](C)C3CC(=O)C(C)=C3CC12 (some centres undefined) | 25.5 | 18.2 | 15.7 | 26.5 | 24.1 | 23.1 | 25.3 | 30.3 | 28.9 | > 62.3 | 29 | 33.3 | > 100 | 28.6 | 26 | – | – | –
O=C1NC2OCC(O)C(O1)C2O (centres undefined) | > 100 | > 100 | > 100 | > 100 | > 100 | > 100 | > 100 | > 100 | > 100 | > 100 | > 100 | > 100 | > 100 | > 100 | > 100 | – | – | –
COc1nc(/C=N/NC(N)=S)nc(OC)n1 | > 100 | > 100 | – | > 100 | > 100 | > 100 | > 100 | > 100 | > 100 | > 100 | > 100 | – | > 100 | > 100 | > 100 | – | – | –
c1ccc2c(c1)ccc1ncccc12 | > 100 | > 100 | – | > 100 | > 100 | > 100 | > 100 | > 100 | > 100 | > 100 | > 100 | > 100 | > 100 | > 100 | > 100 | > 100 | > 100 | > 100
COC(=O)C(/C(=N/N)C(=O)Nc1ccc(C)c(C)c1)c1nc2ccc(Cl)cc2[nH]c1=O (centres undefined) | > 100 | > 100 | > 100 | – | > 100 | > 100 | > 100 | > 100 | > 100 | > 100 | > 100 | > 100 | – | > 100 | > 100 | > 100 | > 100 | > 100
Cc1ccc(C2(C)NC(=S)N(NC(N)=S)C2=S)cc1 (centres undefined) | > 100 | – | > 100 | > 100 | – | > 100 | > 100 | > 100 | – | > 100 | > 100 | > 100 | > 100 | > 100 | > 100 | – | – | –
Cc1ccc(S(=O)(=O)c2c(N)c3nccn3c3nc4ccccc4nc23)cc1 | > 100 | > 100 | > 100 | > 100 | > 100 | > 100 | > 100 | > 100 | > 100 | – | > 100 | > 100 | > 100 | > 100 | > 100 | – | – | –
CC(C)=CCC/C(C)=C/CC/C(C)=C/CC/C=C(\C)CC/C=C(\C)CCC1SC1(C)C (centres undefined) | > 100 | > 100 | > 100 | > 100 | > 100 | > 100 | > 100 | > 100 | > 100 | > 100 | > 100 | > 100 | > 100 | > 100 | > 100 | – | – | –
O/N=C(\C=N\O)c1ccc2c(c1)Sc1ccccc1O2 | 42.8 | 61.1 | 7.43 | 54.3 | 36.8 | 85.4 | 72.5 | 74.2 | 87.5 | 46.3 | – | – | 67.8 | 42 | 54 | > 100 | 40.6 | 66.1
CC1=C2C(=O)C3[C@@H](CCC4=CC(=O)CC[C@@]43C)C2CC[C@]12O[C@@H]1C[C@H](C)CN[C@H]1[C@H]2C (some centres undefined) | > 100 | > 100 | 40.1 | > 100 | > 100 | 36.4 | – | > 100 | – | > 100 | 63.2 | > 100 | > 100 | > 100 | > 100 | – | – | –
COc1cc2c(c(N)c1OC)C(=O)/C(=C/c1cc(C)c(O)c(C)c1)C2 | > 100 | > 100 | 11.7 | > 52.2 | > 100 | – | – | > 100 | > 100 | > 55.6 | > 95.4 | > 32.7 | > 100 | > 100 | > 100 | – | > 100 | > 100
Cc1ccccc1N=Cc1ccc(N(CCC#N)S(=O)(=O)c2ccccc2)cc1 | > 100 | > 100 | > 100 | > 100 | > 100 | > 100 | > 100 | > 100 | > 100 | > 100 | > 100 | > 100 | > 100 | > 100 | > 100 | – | – | –
Cc1ccc(S(=O)(=O)NC(=O)C2(Br)S(=O)(=O)OCCOS2(=O)=O)cc1 | > 100 | – | > 100 | > 100 | > 100 | > 100 | > 100 | > 100 | > 100 | – | > 100 | > 100 | > 100 | > 100 | > 100 | – | – | –

Source: PubChem BioAssay (NCI)
